Key:
Type in all cases: in vivo
[1] = test system: foxtail, giant (giant foxtail, Setaria faberii); experiment: Test A postemergence, visual plant response rating; conditions: for Foxtail, Giant plant response rating (0 to 100 scale): 500 g ai/ha, postemergence, 0 is no effect, 100 is complete control; for Foxtail, Giant plant response rating: Postemergence, 125 g ai/ha, 0 to 100 scale (0 no effect, 100 complete control)
Outline: (§1)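 Greenhouse pot test in loam–sand soil mix: compound in a surfactant-containing non-phytotoxic solvent applied preemergence (directed soil spray) or postemergence (one- to two-leaf plants, 2–10 cm). Injury scored visually after ~10 days, 0–100.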

[2] = test system: ragweed (common ragweed, Ambrosia elatior); experiment: Test A postemergence, visual plant response rating; conditions: for Ragweed plant response rating (0 to 100 scale): 500 g ai/ha, postemergence, 0 is no effect, 100 is complete control; for Ragweed plant response rating: Postemergence, 125 g ai/ha, 0 to 100 scale (0 no effect, 100 complete control)
Outline: as §1

[3] = test system: galium (catchweed bedstraw, Galium aparine); experiment: Test A postemergence, visual plant response rating; conditions: for Galium plant response rating (0 to 100 scale): 500 g ai/ha, postemergence, 0 is no effect, 100 is complete control; for Galium plant response rating: Postemergence, 125 g ai/ha, 0 to 100 scale (0 no effect, 100 complete control)
Outline: as §1

[4] = test system: blackgrass (Alopecurus myosuroides); experiment: Test A postemergence, visual plant response rating; conditions: for Blackgrass plant response rating (0 to 100 scale): 500 g ai/ha, postemergence, 0 is no effect, 100 is complete control; for Blackgrass plant response rating: Postemergence, 125 g ai/ha, 0 to 100 scale (0 no effect, 100 complete control)
Outline: as §1

[5] = test system: wheat (Triticum aestivum); experiment: Test A postemergence, visual plant response rating; conditions: for Wheat plant response rating (0 to 100 scale): 500 g ai/ha, postemergence, 0 is no effect, 100 is complete control; for Wheat plant response rating: Postemergence, 125 g ai/ha, 0 to 100 scale (0 no effect, 100 complete control)
Outline: as §1

corn (Zea mays) = experiment: Test A postemergence, visual plant response rating; conditions: for Corn plant response rating (0 to 100 scale): 500 g ai/ha, postemergence, 0 is no effect, 100 is complete control; for Corn plant response rating: Postemergence, 125 g ai/ha, 0 to 100 scale (0 no effect, 100 complete control)
Outline: as §1

[6] = test system: pigweed (Amaranthus retroflexus); experiment: Test A postemergence, visual plant response rating; conditions: for Pigweed plant response rating (0 to 100 scale): 500 g ai/ha, postemergence, 0 is no effect, 100 is complete control; for Pigweed plant response rating: Postemergence, 125 g ai/ha, 0 to 100 scale (0 no effect, 100 complete control)
Outline: as §1

kochia (Kochia scoparia) [7] = experiment: Test A postemergence, visual plant response rating; conditions: for Kochia plant response rating (0 to 100 scale): 500 g ai/ha, postemergence, 0 is no effect, 100 is complete control; for Kochia plant response rating: Postemergence, 125 g ai/ha, 0 to 100 scale (0 no effect, 100 complete control)
Outline: as §1

[8] = test system: Italian ryegrass (Lolium multiflorum); experiment: Test A postemergence, visual plant response rating; conditions: for Ryegrass, Italian plant response rating (0 to 100 scale): 500 g ai/ha, postemergence, 0 is no effect, 100 is complete control; for Ryegrass, Italian plant response rating: Postemergence, 125 g ai/ha, 0 to 100 scale (0 no effect, 100 complete control)
Outline: as §1

[9] = test system: barnyardgrass (Echinochloa crus-galli); experiment: Test A postemergence, visual plant response rating; conditions: for Barnyardgrass plant response rating (0 to 100 scale): 500 g ai/ha, postemergence, 0 is no effect, 100 is complete control; for Barnyardgrass plant response rating: Postemergence, 125 g ai/ha, 0 to 100 scale (0 no effect, 100 complete control)
Outline: as §1

[10] = test system: foxtail, giant (giant foxtail, Setaria faberii); experiment: Test A preemergence, visual plant response rating; conditions: for Foxtail, Giant plant response rating: 125 g ai/ha, preemergence, 0 to 100 scale, 0 no effect, 100 complete control; for Foxtail, Giant plant response rating (0 to 100 scale): 500 g ai/ha Preemergence, approx. 10 days
Outline: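 Preemergence: seeds in loam/sand blend given directed soil spray of compound in non-phytotoxic solvent with surfactant. Postemergence: plants 2–10 cm, one- to two-leaf stage, sprayed with same formulation. Visual injury rated vs untreated controls after ~10 days in greenhouse, 0 (no effect) to 100 (complete control).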

[11] = test system: ragweed (common ragweed, Ambrosia elatior); experiment: Test A preemergence, visual plant response rating; conditions: for Ragweed plant response rating: 125 g ai/ha, preemergence, 0 to 100 scale, 0 no effect, 100 complete control; for Ragweed plant response rating (0 to 100 scale): 500 g ai/ha Preemergence, approx. 10 days
Outline: as §1

[12] = test system: pigweed (Amaranthus retroflexus); experiment: Test A preemergence, visual plant response rating; conditions: for Pigweed plant response rating: 125 g ai/ha, preemergence, 0 to 100 scale, 0 no effect, 100 complete control; for Pigweed plant response rating (0 to 100 scale): 500 g ai/ha Preemergence, approx. 10 days
Outline: as §1

kochia (Kochia scoparia) [13] = experiment: Test A preemergence, visual plant response rating; conditions: for Kochia plant response rating: 125 g ai/ha, preemergence, 0 to 100 scale, 0 no effect, 100 complete control; for Kochia plant response rating (0 to 100 scale): 500 g ai/ha Preemergence, approx. 10 days
Outline: as §1

[14] = test system: Italian ryegrass (Lolium multiflorum); experiment: Test A preemergence, visual plant response rating; conditions: for Ryegrass, Italian plant response rating: 125 g ai/ha, preemergence, 0 to 100 scale, 0 no effect, 100 complete control; for Ryegrass, Italian plant response rating (0 to 100 scale): 500 g ai/ha Preemergence, approx. 10 days
Outline: as §1

[15] = test system: barnyardgrass (Echinochloa crus-galli); experiment: Test A preemergence, visual plant response rating; conditions: for Barnyardgrass plant response rating: 125 g ai/ha, preemergence, 0 to 100 scale, 0 no effect, 100 complete control; for Barnyardgrass plant response rating (0 to 100 scale): 500 g ai/ha Preemergence, approx. 10 days
Outline: as §1

[16] = test system: ducksalad (Heteranhera limosa); experiment: Test B flooded paddy test, visual plant response rating; conditions: 250 g ai/ha, Flood, applied to paddy water, 2-leaf stage, evaluated after 13 to 15 days
Outline: (§2)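 Flooded-pot treatment: water 3 cm over the soil, chemical delivered into that water, depth unchanged for the duration. Assessed by eye versus controls following 13–15 greenhouse days; plants were at 2 leaves when dosed.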

rice (Oryza sativa) = experiment: as above; conditions: 250 g ai/ha, Flood, applied to paddy water, 2-leaf stage, evaluated after 13 to 15 days
Outline: as §2

[17] = test system: sedge, umbrella (small-flower umbrella sedge, Cyperus difformis); experiment: as above; conditions: 250 g ai/ha, Flood, applied to paddy water, 2-leaf stage, evaluated after 13 to 15 days
Outline: as §2

[18] = test system: barnyardgrass (Echinochloa crus-galli); experiment: as above; conditions: 250 g ai/ha, Flood, applied to paddy water, 2-leaf stage, evaluated after 13 to 15 days
Outline: as §2

| SMILES | Foxtail, Giant plant response rating (0 to 100 scale) [1] | Foxtail, Giant plant response rating [1] | Ragweed plant response rating (0 to 100 scale) [2] | Ragweed plant response rating [2] | Galium plant response rating (0 to 100 scale) [3] | Galium plant response rating [3] | Blackgrass plant response rating (0 to 100 scale) [4] | Blackgrass plant response rating [4] | Wheat plant response rating (0 to 100 scale) [5] | Wheat plant response rating [5] | Corn plant response rating (0 to 100 scale) (corn (Zea mays)) | Corn plant response rating (corn (Zea mays)) | Pigweed plant response rating (0 to 100 scale) [6] | Pigweed plant response rating [6] | Kochia plant response rating (0 to 100 scale) (kochia (Kochia scoparia) [7]) | Kochia plant response rating (kochia (Kochia scoparia) [7]) | Ryegrass, Italian plant response rating (0 to 100 scale) [8] | Ryegrass, Italian plant response rating [8] | Barnyardgrass plant response rating (0 to 100 scale) [9] | Barnyardgrass plant response rating [9] | also measured |
| --- | --- | --- | --- | --- | --- | --- | --- | --- | --- | --- | --- | --- | --- | --- | --- | --- | --- | --- | --- | --- | --- |
| CO/N=C(\c1ccccc1C#N)c1c(O)c(C)nn(C)c1=O [Compound 76] | 0 | 0 | 60 | 10 | 70 | 40 | 0 | 0 | 0 | 0 | 0 | 0 | 70 | 40 | 0 | 0 | 30 | 20 | 20 | 20 | Foxtail, Giant plant response rating [10]: 0; Foxtail, Giant plant response rating (0 to 100 scale) [10]: 0; Ragweed plant response rating [11]: 0; Ragweed plant response rating (0 to 100 scale) [11]: 0; Pigweed plant response rating [12]: 0; Pigweed plant response rating (0 to 100 scale) [12]: 10; Kochia plant response rating (kochia (Kochia scoparia) [13]): 0; Kochia plant response rating (0 to 100 scale) (kochia (Kochia scoparia) [13]): 0; Ryegrass, Italian plant response rating [14]: 0; Ryegrass, Italian plant response rating (0 to 100 scale) [14]: 0; Barnyardgrass plant response rating [15]: 0; Barnyardgrass plant response rating (0 to 100 scale) [15]: 0; Plant response rating, Ducksalad (0 to 100 scale, 0 is no effect, 100 is complete control) [16]: 0; Plant response rating, Rice (0 to 100 scale, 0 is no effect, 100 is complete control) (rice (Oryza sativa)): 0; Plant response rating, Sedge, Umbrella (0 to 100 scale, 0 is no effect, 100 is complete control) [17]: 0; Plant response rating, Barnyardgrass (0 to 100 scale, 0 is no effect, 100 is complete control) [18]: 0 |
| C#CCO/N=C(/c1c(O)c(C)nn(C)c1=O)c1cccc2ccccc12 [Compound 82, 5-hydroxy-2,6-dimethyl-4-[(E)-[(2-propyn-1-yloxy)imino]-1-naphthalenylmethyl]-3(2H)-pyridazinone] | 80 | 70 | 100 | 90 | 100 | 90 | 100 | 90 | 80 | 50 | 30 | 0 | 90 | 70 | 90 | 80 | 80 | 80 | 80 | 50 | Foxtail, Giant plant response rating [10]: 100; Foxtail, Giant plant response rating (0 to 100 scale) [10]: 100; Ragweed plant response rating [11]: 90; Ragweed plant response rating (0 to 100 scale) [11]: 100; Pigweed plant response rating [12]: 100; Pigweed plant response rating (0 to 100 scale) [12]: 100; Kochia plant response rating (kochia (Kochia scoparia) [13]): 10; Kochia plant response rating (0 to 100 scale) (kochia (Kochia scoparia) [13]): 80; Ryegrass, Italian plant response rating [14]: 90; Ryegrass, Italian plant response rating (0 to 100 scale) [14]: 100; Barnyardgrass plant response rating [15]: 60; Barnyardgrass plant response rating (0 to 100 scale) [15]: 100; Plant response rating, Ducksalad (0 to 100 scale, 0 is no effect, 100 is complete control) [16]: 0; Plant response rating, Rice (0 to 100 scale, 0 is no effect, 100 is complete control) (rice (Oryza sativa)): 0; Plant response rating, Sedge, Umbrella (0 to 100 scale, 0 is no effect, 100 is complete control) [17]: 0; Plant response rating, Barnyardgrass (0 to 100 scale, 0 is no effect, 100 is complete control) [18]: 0 |

— patent publication US20210045385A1, “PYRIDAZINONE-SUBSTITUTED KETOXIMES AS HERBICIDES” (FMC Corporation, priority 2018, published 2021)
